Assay results taken from ChEMBL document CHEMBL3627617, “Investigation of new 2-aryl substituted Benzothiopyrano[4,3-d]pyrimidines as kinase inhibitors targeting vascular endothelial growth factor receptor 2” (Eur J Med Chem, 2015).

Legend:
HeLa = test: Antiproliferative activity against human HeLa cells assessed as cell viability after 72 hrs by trypan blue assay; type: functional
A-431 = test: Antiproliferative activity against human A431 cells assessed as cell viability after 72 hrs by trypan blue assay; type: functional; settings: A-431, 72 h
MSTO-211H = test: Antiproliferative activity against human MSTO-211H cells assessed as cell viability after 72 hrs by trypan blue assay; type: functional
HUVEC = test: Antiproliferative activity against human HUVEC cells assessed as reduction in cell viability after 72 hrs by trypan blue assay; type: functional
[1] = target: Vascular endothelial growth factor receptor 2 (Homo sapiens, UniProt P35968); test: Inhibition of human KDR incubated for 50 mins by omnia tyr peptide 8 substrate based fluorescence assay
[2] = target: Epidermal growth factor receptor (Homo sapiens, UniProt P00533)
Aorta [3] = test: Anti-angiogenic activity in rat aortic explant assessed as microvessel sprouting inhibition at 100 nM incubated for 7 days by rat aortic ring assay; type: functional; settings: 168 h
Aorta [4] = test: Anti-angiogenic activity in rat aortic explant assessed as microvessel sprouting inhibition at 1 uM incubated for 7 days by rat aortic ring assay; type: functional; settings: 168 h
Aorta [5] = test: Anti-angiogenic activity in rat aortic explant assessed as microvessel sprouting inhibition at 5 uM incubated for 7 days by rat aortic ring assay; type: functional; settings: 168 h
Aorta [6] = test: Anti-angiogenic activity in rat aortic explant assessed as microvessel sprouting inhibition at 10 uM incubated for 7 days by rat aortic ring assay; type: functional; settings: 168 h
[7] = target: RAC-alpha serine/threonine-protein kinase (Homo sapiens) (UniProt P31749); test: Inhibition of human Akt1 at 10 uM by kinase inhibition assay
[8] = target: T1, Aurora kinase A (Homo sapiens) (UniProt O14965); test: Inhibition of human AurA kinase at 10 uM by kinase inhibition assay
T1 sequence (whole entry): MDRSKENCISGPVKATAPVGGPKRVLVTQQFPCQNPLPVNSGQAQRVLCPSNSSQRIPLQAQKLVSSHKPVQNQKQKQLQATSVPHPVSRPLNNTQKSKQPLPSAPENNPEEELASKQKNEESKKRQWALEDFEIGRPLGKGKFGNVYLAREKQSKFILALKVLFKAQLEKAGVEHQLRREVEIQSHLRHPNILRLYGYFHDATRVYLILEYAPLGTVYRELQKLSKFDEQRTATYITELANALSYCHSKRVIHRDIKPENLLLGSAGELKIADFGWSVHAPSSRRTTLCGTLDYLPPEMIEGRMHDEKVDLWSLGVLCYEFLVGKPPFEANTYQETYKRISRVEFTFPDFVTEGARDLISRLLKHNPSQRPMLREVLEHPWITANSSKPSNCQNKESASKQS

[9] = target: Cyclin-dependent kinase 1 (Homo sapiens) (UniProt P06493); test: Inhibition of human CDK1 at 10 uM by kinase inhibition assay
[10] = target: Mitogen-activated protein kinase 3 (Homo sapiens) (UniProt P27361); test: Inhibition of human ERK1 at 10 uM by kinase inhibition assay
[11] = target: Focal adhesion kinase 1 (Homo sapiens) (UniProt Q05397); test: Inhibition of human FAK at 10 uM by kinase inhibition assay
[12] = target: Dual specificity mitogen-activated protein kinase kinase 1 (Homo sapiens) (UniProt Q02750); test: Inhibition of human MEK1 at 10 uM by kinase inhibition assay
[13] = target: Platelet-derived growth factor receptor beta (Homo sapiens) (UniProt P09619); test: Inhibition of human PDGFRbeta at 10 uM by kinase inhibition assay
[14] = target: RAF proto-oncogene serine/threonine-protein kinase (Homo sapiens) (UniProt P04049); test: Inhibition of human RAF1 at 10 uM by kinase inhibition assay
[15] = target: Rho-associated protein kinase 1 (Homo sapiens) (UniProt Q13464); test: Inhibition of human ROCK1 at 10 uM by kinase inhibition assay
[16] = target: Proto-oncogene tyrosine-protein kinase Src (Homo sapiens) (UniProt P12931); test: Inhibition of human Src kinase at 10 uM by kinase inhibition assay
HL-60 = test: Antiproliferative activity against human HL60 cells assessed as growth inhibition; type: functional

Chain of Dual specificity mitogen-activated protein kinase kinase 1 (Homo sapiens) (Q02750 whole entry): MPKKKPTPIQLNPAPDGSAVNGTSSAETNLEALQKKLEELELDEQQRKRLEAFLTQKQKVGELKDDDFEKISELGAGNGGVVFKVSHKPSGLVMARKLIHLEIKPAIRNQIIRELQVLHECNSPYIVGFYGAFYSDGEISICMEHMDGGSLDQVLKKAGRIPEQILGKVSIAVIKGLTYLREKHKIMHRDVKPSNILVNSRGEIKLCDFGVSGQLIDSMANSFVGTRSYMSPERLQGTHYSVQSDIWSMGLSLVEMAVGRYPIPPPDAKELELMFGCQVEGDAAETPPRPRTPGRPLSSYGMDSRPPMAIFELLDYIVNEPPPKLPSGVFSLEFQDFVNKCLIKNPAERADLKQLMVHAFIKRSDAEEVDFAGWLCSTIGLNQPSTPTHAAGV
Chain of Focal adhesion kinase 1 (Homo sapiens) (Q05397 2-1052 limits assumed): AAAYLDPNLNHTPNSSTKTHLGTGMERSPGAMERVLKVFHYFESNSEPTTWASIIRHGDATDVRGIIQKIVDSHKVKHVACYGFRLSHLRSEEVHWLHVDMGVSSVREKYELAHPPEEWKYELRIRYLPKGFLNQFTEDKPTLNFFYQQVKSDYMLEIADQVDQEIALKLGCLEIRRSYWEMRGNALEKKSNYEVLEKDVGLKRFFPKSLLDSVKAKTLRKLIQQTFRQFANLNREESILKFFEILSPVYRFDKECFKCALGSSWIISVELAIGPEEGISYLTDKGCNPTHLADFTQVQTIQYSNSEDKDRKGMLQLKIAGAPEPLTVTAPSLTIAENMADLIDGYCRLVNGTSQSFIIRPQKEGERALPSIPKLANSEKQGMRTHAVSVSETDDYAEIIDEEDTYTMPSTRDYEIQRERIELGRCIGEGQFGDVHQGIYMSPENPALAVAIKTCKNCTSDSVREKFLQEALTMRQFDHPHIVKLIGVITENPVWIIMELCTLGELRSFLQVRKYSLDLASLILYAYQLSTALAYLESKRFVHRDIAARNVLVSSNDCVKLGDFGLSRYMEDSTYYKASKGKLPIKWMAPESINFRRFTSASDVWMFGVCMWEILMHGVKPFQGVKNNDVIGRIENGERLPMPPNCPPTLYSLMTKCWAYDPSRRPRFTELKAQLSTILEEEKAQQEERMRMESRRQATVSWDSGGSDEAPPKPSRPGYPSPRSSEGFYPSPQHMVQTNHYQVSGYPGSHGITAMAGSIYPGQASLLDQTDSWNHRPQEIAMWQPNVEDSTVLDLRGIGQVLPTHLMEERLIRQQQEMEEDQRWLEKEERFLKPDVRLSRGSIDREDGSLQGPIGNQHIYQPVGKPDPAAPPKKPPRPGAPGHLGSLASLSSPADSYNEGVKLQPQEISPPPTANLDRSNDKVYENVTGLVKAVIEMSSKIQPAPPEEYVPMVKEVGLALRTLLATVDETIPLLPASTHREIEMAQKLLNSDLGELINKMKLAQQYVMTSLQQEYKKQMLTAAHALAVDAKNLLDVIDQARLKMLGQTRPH
Chain of Mitogen-activated protein kinase 3 (Homo sapiens) (P27361 whole entry): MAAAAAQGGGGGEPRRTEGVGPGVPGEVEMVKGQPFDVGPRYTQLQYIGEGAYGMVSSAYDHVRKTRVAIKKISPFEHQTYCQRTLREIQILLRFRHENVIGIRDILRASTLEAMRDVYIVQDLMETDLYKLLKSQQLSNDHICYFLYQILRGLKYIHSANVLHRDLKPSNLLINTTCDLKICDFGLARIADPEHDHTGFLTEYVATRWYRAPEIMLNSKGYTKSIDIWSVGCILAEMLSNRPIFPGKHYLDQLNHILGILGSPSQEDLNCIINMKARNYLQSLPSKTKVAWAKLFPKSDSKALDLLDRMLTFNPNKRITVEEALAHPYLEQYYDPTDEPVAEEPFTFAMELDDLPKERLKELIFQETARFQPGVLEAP
Chain of RAF proto-oncogene serine/threonine-protein kinase (Homo sapiens) (P04049 whole entry): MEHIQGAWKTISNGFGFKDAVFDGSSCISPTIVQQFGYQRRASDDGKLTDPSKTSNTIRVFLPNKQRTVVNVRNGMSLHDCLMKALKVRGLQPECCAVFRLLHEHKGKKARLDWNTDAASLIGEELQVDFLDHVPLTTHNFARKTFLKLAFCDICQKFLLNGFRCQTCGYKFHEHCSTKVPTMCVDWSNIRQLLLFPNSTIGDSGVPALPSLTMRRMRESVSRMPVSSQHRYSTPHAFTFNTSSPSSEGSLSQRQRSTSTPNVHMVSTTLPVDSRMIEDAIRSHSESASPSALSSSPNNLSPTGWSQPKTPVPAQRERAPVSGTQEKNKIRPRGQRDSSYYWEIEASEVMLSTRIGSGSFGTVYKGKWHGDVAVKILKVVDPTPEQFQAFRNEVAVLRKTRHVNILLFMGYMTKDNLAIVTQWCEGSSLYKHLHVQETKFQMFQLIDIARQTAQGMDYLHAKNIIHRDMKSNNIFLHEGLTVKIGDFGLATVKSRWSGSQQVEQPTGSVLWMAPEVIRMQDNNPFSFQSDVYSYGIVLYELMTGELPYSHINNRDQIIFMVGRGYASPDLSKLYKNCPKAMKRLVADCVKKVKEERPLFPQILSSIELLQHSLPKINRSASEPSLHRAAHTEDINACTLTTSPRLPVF
Chain of Platelet-derived growth factor receptor beta (Homo sapiens) (P09619 whole entry): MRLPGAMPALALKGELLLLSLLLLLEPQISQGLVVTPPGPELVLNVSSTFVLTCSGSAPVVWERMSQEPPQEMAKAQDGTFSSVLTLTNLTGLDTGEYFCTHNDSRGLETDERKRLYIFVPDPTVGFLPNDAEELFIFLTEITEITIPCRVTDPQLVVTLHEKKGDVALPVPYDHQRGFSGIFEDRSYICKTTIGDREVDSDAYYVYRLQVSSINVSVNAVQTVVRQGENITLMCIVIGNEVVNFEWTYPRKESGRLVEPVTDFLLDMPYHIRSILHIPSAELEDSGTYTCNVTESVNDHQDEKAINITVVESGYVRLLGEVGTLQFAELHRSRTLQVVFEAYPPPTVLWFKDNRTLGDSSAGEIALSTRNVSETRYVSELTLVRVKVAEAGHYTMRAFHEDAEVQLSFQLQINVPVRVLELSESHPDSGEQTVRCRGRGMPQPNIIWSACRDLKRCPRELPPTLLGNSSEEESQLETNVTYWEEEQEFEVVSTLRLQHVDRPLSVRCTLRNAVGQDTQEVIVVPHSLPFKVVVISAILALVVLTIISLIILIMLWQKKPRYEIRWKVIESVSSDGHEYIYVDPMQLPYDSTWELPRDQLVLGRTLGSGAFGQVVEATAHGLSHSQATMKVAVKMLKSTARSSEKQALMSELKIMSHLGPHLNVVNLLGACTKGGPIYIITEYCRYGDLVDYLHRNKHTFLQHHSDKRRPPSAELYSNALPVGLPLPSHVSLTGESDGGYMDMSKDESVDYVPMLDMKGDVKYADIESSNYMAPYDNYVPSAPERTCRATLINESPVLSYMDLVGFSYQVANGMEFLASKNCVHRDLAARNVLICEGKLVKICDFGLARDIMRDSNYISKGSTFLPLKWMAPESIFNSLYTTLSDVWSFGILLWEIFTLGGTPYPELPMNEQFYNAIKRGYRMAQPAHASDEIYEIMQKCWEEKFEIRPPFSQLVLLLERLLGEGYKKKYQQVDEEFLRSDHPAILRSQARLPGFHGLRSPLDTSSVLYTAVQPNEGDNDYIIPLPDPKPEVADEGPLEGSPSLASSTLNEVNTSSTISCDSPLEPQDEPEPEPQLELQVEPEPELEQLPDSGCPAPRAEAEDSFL
Chain of Vascular endothelial growth factor receptor 2 (P35968 whole entry): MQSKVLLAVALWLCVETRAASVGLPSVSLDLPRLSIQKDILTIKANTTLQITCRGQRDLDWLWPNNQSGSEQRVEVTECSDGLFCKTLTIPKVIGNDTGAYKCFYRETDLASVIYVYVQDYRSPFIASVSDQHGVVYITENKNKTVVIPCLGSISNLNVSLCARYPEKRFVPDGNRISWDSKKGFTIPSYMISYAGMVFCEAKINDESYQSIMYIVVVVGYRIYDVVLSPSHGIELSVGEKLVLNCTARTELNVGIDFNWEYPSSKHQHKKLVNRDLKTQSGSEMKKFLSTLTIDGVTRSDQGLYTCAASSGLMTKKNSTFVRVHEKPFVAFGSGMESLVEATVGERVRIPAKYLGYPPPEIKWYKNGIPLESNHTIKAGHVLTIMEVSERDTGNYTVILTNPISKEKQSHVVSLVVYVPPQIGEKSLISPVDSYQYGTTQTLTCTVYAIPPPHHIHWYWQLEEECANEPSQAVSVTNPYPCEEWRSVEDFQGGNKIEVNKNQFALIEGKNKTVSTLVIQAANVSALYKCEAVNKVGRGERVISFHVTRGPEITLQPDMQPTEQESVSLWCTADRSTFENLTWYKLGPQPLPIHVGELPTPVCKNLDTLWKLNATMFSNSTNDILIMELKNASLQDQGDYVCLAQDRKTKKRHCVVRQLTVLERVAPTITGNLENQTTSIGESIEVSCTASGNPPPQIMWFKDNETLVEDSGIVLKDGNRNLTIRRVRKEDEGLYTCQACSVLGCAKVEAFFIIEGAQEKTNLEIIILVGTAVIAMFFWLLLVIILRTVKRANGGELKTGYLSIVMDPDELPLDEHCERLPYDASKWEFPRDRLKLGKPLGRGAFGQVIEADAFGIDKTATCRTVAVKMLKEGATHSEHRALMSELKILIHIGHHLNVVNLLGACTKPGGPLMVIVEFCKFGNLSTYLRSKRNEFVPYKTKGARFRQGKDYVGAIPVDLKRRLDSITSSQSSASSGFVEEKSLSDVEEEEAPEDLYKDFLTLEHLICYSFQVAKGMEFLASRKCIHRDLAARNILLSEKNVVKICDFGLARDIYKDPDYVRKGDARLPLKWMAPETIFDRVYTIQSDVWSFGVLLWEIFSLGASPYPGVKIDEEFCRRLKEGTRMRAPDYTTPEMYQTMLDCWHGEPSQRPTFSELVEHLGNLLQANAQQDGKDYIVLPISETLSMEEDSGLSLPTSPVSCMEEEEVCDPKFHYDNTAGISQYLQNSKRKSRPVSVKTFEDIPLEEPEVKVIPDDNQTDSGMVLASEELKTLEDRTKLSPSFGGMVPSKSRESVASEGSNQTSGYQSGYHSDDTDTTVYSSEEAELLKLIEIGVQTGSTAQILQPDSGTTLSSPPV

Compound	GI50 (HeLa) [µM]	GI50 (A-431) [µM]	GI50 (MSTO-211H) [µM]	GI50 (HUVEC) [µM]	also measured
COc1ccc2c(c1)SCc1cnc(-c3ccc(Cl)cc3)nc1-2	> 20	> 20	> 20	> 20	–
Clc1ccc2c(c1)SCc1cnc(Nc3ccccc3)nc1-2	> 20	> 20	> 20	> 20	IC50 [1]: > 50 µM
Clc1ccc(Nc2ncc3c(n2)-c2ccc(Cl)cc2SC3)cc1	1.5	2.2	1.6	0.35	IC50 [2]: 45.7 µM; IC50 [1]: 5.6 µM; inhibition at 0.1 µM (Aorta [3]): -0.5%; inhibition at 1 µM (Aorta [4]): 15%; inhibition at 5 µM (Aorta [5]): 88%; inhibition at 10 µM (Aorta [6]): 98%; inhibition [7]: 3%; inhibition [8]: 0%; inhibition [9]: -3.2%; inhibition [10]: -4.3%; inhibition [11]: -0.9%; inhibition [12]: 5.9%; inhibition [13]: 2.5%; inhibition [14]: -1.5%; inhibition [15]: -5.6%; inhibition [16]: 8.8%
Clc1ccc(CNc2ncc3c(n2)-c2ccccc2SC3)cc1	> 20	> 20	> 20	12.3	–
Clc1ccc(-c2ncc3c(n2)-c2ccccc2SC3)cc1	> 20	> 20	> 20	11.3	–
COc1ccc2c(c1)SCc1cnc(Nc3ccc(Cl)cc3)nc1-2	> 20	> 20	> 20	> 20	IC50 [1]: > 50 µM
c1ccc(Nc2ncc3c(n2)-c2ccccc2SC3)cc1	10.2	> 20	11.7	2.4	IC50 [1]: 8.2 µM
COc1ccc(-c2ncc3c(n2)-c2ccc(Cl)cc2SC3)cc1	> 20	> 20	> 20	4.7	–
c1ccc(-c2ncc3c(n2)-c2ccccc2SC3)cc1	> 20	> 20	> 20	4	–
COc1ccc(-c2ncc3c(n2)-c2ccccc2SC3)cc1	> 20	> 20	> 20	12	–
COc1ccc(Nc2ncc3c(n2)-c2ccccc2SC3)cc1	0.7	0.96	1.08	0.45	inhibition at 0.1 µM (Aorta [3]): -8%; inhibition at 1 µM (Aorta [4]): 9%; inhibition at 5 µM (Aorta [5]): 95%; inhibition at 10 µM (Aorta [6]): 96%; inhibition [7]: 1.4%; inhibition [8]: 71.7%; inhibition [9]: 84.8%; inhibition [10]: -1.8%; inhibition [11]: 47.3%; inhibition [12]: 21.6%; inhibition [13]: 42%; inhibition [14]: 4.1%; inhibition [15]: -0.4%; inhibition [16]: 12%
COc1ccc(Nc2ncc3c(n2)-c2ccc(Cl)cc2SC3)cc1	2.1	5.8	> 20	16.4	IC50 [2]: 21.6 µM; IC50 [1]: > 50 µM
COc1ccc2c(c1)SCc1cnc(NCc3ccccc3)nc1-2	> 20	> 20	> 20	> 20	–
COc1ccc(-c2ncc3c(n2)-c2ccc(OC)cc2SC3)cc1	> 20	> 20	> 20	4.8	–
COc1ccc(CNc2ncc3c(n2)-c2ccc(Cl)cc2SC3)cc1	> 20	> 20	> 20	12	–
COc1ccc(CNc2ncc3c(n2)-c2ccc(OC)cc2SC3)cc1	> 20	> 20	> 20	> 20	–
COc1ccc(Nc2ncc3c(n2)-c2ccc(OC)cc2SC3)cc1	0.83	0.96	1.08	0.74	IC50 [1]: 17.5 µM
Clc1ccc(CNc2ncc3c(n2)-c2ccc(Cl)cc2SC3)cc1	> 20	> 20	> 20	17	–
Cc1cc(C)c(/C=C2\C(=O)Nc3ccccc32)[nH]1 [SEMAXANIB]	–	–	–	13.6	inhibition at 0.1 µM (Aorta [3]): -12%; inhibition at 1 µM (Aorta [4]): -2%; inhibition at 5 µM (Aorta [5]): 72%; inhibition at 10 µM (Aorta [6]): 100%
COc1ccc2c(c1)SCc1ncc(-c3ccccc3)nc1-2	–	–	–	–	GI50 (HL-60): 7.15 µM
Clc1ccc2c(c1)SCc1cnc(NCc3ccccc3)nc1-2	> 20	> 20	> 20	15.1	–
Clc1ccc(Nc2ncc3c(n2)-c2ccccc2SC3)cc1	15.6	> 20	11.5	7.3	IC50 [1]: > 50 µM
COc1ccc2c(c1)SCc1cnc(Nc3ccccc3)nc1-2	20.1	> 20	15	4.3	IC50 [1]: > 50 µM
Clc1ccc(-c2ncc3c(n2)-c2ccc(Cl)cc2SC3)cc1	> 20	> 20	> 20	15.3	–
c1ccc(CNc2ncc3c(n2)-c2ccccc2SC3)cc1	> 20	> 20	> 20	> 20	–
Clc1ccc2c(c1)SCc1cnc(-c3ccccc3)nc1-2	> 20	> 20	> 20	2.3	–
COc1ccc2c(c1)SCc1cnc(NCc3ccc(Cl)cc3)nc1-2	> 20	> 20	> 20	> 20	–
COc1ccc2c(c1)SCc1cnc(-c3ccccc3)nc1-2	> 20	6.5	11.9	2.9	IC50 [2]: 4.72 µM; inhibition [7]: -4%; inhibition [8]: -2.2%; inhibition [9]: -4.2%; inhibition [10]: -1.7%; inhibition [11]: 11.6%; inhibition [12]: 14.6%; inhibition [13]: -6%; inhibition [14]: 2.6%; inhibition [15]: -6.3%; inhibition [16]: 0.3%
COc1ccc(CNc2ncc3c(n2)-c2ccccc2SC3)cc1	> 20	> 20	> 20	> 20	–
